Experimental data from US20230331649A1, “INHIBITORS OF PROTEIN FUCOSYLATION AND USES THEREOF” (SIMON FRASER UNIVERSITY, priority 2020, published 2023).

How the values were obtained:
[1] = system: CHO K1 cells; test: Cell-based fucosylation assay, fluorescein-AAL lectin staining of CHO K1 cells; set-up: species or system Chinese hamster; conditions: Cricetulus griseus, 120 h, five days with inhibitor, 3.2 nM-100 μM, AAL lectin fluorescence normalized to DMSO vehicle
Procedure: CHO K1 cells were grown in a T175 flask, in F12 medium supplemented with 10% […], at 37° C., 5% CO2. 350 cells were seeded in every well of a 384-well plate (Corning 4680, 45 μL final) and incubated at 37° C. overnight. Inhibitors were stored as 20 mM stock solution in DMSO. Inhibitors were diluted to the desired concentration in CHO cells culture medium and were dispensed into the wells of the plate (50 μL final well volume). An equivalent amount of DMSO (vehicle) was dispensed into control wells. Cells were incubated in the presence of inhibitors for five days. Following treatment, the culture medium was removed and cells were washed four times with 60 μL of PBS-T using a combination washer/dispenser (EL406, Biotek). 50 μL of 4% PFA in PBS-T was then dispensed into the plate and cells were incubated for 15 min at room temperature before being washed four times with 60 μL of PBS-T. Cells were subsequently incubated for 45 minutes at room temperature with 5% Bovine Serum Albumin (BSA) in PBS-T to prevent non-specific lectin binding. The BSA solution was then replaced by 50 μL of a solution of 5 μg/mL of Fluorescein-conjugated Aleuria Aurentia Lectin (AAL) (Vector Laboratories) and cells were kept at room temperature in the dark for 1 h. Negative controls were co-incubated with AAL and 100 mM fucose as a lectin antagonist. Cells were subsequently washed four times with 60 μL PBS-T. Then, 50 μL of 1 μg/mL Hoechst solution in PBS was dispensed into each well and cells were directly imaged using an ImageXpress MicroXLS high content microscope (Molecular Devices). Four sites per wells were imaged using DAPI and FITC channels (50 ms and 300 ms exposure respectively). Images were processed using MetaXpress software. Briefly, for each site, the integrated average fluorescence was quantified and normalized for the corresponding number of cells determined with nuclear staining. Results from each site were combined to provide a single value for each well. At least four independent wells were imaged for each condition providing four biological replicates. IC50 curves were plotted using GraphPad Prism. Results were normalized on the average value for vehicle wells (DMSO treated).
We assessed the potency of carbafucose and selected analogs through dose-response experiments over a 3.2 nM-100 μM range of concentrations in the cell-based assay. The cell-based fucosylation antagonist 2-deoxy-2-fluoro-L-fucose (2FFuc) was used as a control (FIGS. 1A-D).

[2] = system: Expi-CHO cells; test: Glycan analysis of HER2 antibody from compound-treated Expi-CHO cells (PNGaseF release, CE-LIF); assay type: cell-based, Chinese hamster; conditions: 0.1 mM compound added a day after transfection with HER2 antibody, harvested after 8 days, released glycans by CE-LIF; for Glycan A2 (alt name G0) (%): non-fucosylated glycan
Procedure: Expi-CHO cells were treated with compounds 16, 7, 9, 13, 6, 8, 14 and 15 at 0.1 mM (final conc.) a day after transfection with HER2 antibody. The transfected cells were harvested after 8 days and purified HER2 antibodies were deglycosylated using PNGaseF and the released glycans were purified and analyzed by capillary electrophoresis-laser-induced fluorescence (CE-LIF).

Structure (SMILES)	IC50 [1] [µM]	Glycan A2BG2 (alt name G2B) (%) [2] [%]	Glycan FA2(3)G1 (alt name G1′F) (%) [2] [%]	Glycan FA2(6)G1 (alt name G1F) (%) [2] [%]	Glycan FA2(6)G1S1 (alt name G1FS1) (%) [2] [%]	Glycan FA2 (alt name G0F) (%) [2] [%]	Glycan FA2G2S1 (alt name G2FS1) (%) [2] [%]	Glycan FA2G2S2 (alt name G2FS2) (%) [2] [%]	Glycan A2 (alt name G0) (%) [2] [%]
C=C[C@@H]1C[C@H](O)[C@@H](O)[C@H](O)[C@@H]1O [1-42]	137 ± 79								
C[C@@H]1C[C@H](OP(=O)(O)O)[C@@H](O)[C@H](O)[C@@H]1O [2-3]	39.5 ± 30.3								
C[C@@H]1OC(O)[C@@H](F)[C@H](O)[C@@H]1O (stereo partly drawn) [2FFuc, 2-deoxy-2-fluoro-L-fucose, reference compound]	137 ± 79								
CC1=C[C@H](O)[C@@H](F)[C@H](O)[C@@H]1O [Compound 6]		0.8	0.6	4.1	0.8	77.7	15.9	0.0	0.0
CC(=O)O[C@H]1[C@H](F)[C@@H](OC(C)=O)C=C(C)[C@H]1OC(C)=O [Compound 7]		0.0	0.0	3.9	0.0	79.5	16.6	0.0	0.0
CC1C[C@H](O)[C@@H](F)[C@H](O)[C@@H]1O (stereo partly shown) [Compound 8]		0.0	0.0	3.9	0.0	79.3	16.8	0.0	0.0
CC(=O)O[C@H]1[C@H](F)[C@@H](OC(C)=O)CC(C)[C@H]1OC(C)=O (stereo partly shown) [Compound 9]		0.8	0.0	3.9	0.0	78.9	16.4	0.0	0.0
CC1=C[C@H](O)[C@@H](O)[C@H](O)[C@@H]1O [Compound 13]		0.8	0.0	3.9	0.9	77.3	17.0	0.0	0.0
CC1C[C@H](O)[C@@H](O)[C@H](O)[C@@H]1O (stereo partly shown) [Compound 15]		0.0	0.0	0.0	17.2	8.8	0.0	3.3	70.6
C[C@@H]1C[C@H](O)[C@@H](O)[C@H](O)[C@@H]1O [carbafucose]	16.1 ± 7.7								
